Source: the METLIN SMRT retention time set (Domingo-Almenara et al. 2019)

Experiment: gradient 5% acetonitrile 3 min, to 50% in 2 min, to 85% in 15 min, held 3 min, 100 µL/min
Conditions: column: Zorbax Extend-C18 2.1 x 50 mm; eluents: water / acetonitrile, 0.1% formic acid
In short: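 Standards, all pure, were combined into mixtures of ~100 molecules and run at 100 μL/min on a Zorbax Extend-C18 column (2.1 × 50 mm, 1.8 μm) with water and acetonitrile, each containing 0.1% formic acid. A coupled quadrupole time-of-flight mass spectrometer operated in positive and negative ionization mode. Retention time values come from computationally picked adduct peaks, each inspected manually.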

SMILES: Fc1ccc(-c2nnc(Cc3nc(-c4ccc(Br)cc4)no3)o2)cc1
- RP-LC retention time: 1110 s

SMILES: Cc1occc1C(=O)N[C@@H]1CN(S(C)(=O)=O)C[C@H]1CN(C)C
- RP-LC retention time: 573 s

SMILES: Cc1ccc(C)c(-c2cc3c4nnc(CCC(=O)N5CCC(C(N)=O)CC5)n4ccn3n2)c1
- RP-LC retention time: 669 s

SMILES: CC1=NS(=O)(=O)N(Cc2ccccc2)C=C1C(=O)OCc1ccc(Br)cc1
- RP-LC retention time: 1200 s

SMILES: CCc1nc(-c2csc(S(=O)(=O)N3CCC(C(=O)NCc4ccc(C)cc4)CC3)c2)no1
- RP-LC retention time: 662 s

SMILES: O=C(Oc1cccc(Oc2ccccc2)c1)N1CCOCC1
- RP-LC retention time: 889 s

SMILES: CCc1cc(C(=O)N2CCN(CC)CC2)nc2cc(-c3ccsc3)nn12
- RP-LC retention time: 664 s

SMILES: COc1cccc(NC(=O)NCc2cc(C)oc2C)c1OC
- RP-LC retention time: 815 s

SMILES: O=C(NCc1ccccc1Cl)C1CCN(S(=O)(=O)c2cc(C(=O)N3CCCC3)cs2)CC1
- RP-LC retention time: 815 s

SMILES: Cc1ccc(N2CC(c3nc(-c4ccc5c(c4)OCO5)no3)CC2=O)cc1F (stereo not drawn)
- RP-LC retention time: 986 s

SMILES: COc1ccc(NC(=O)N2CCCC2c2nc(-c3ccc(F)cc3F)no2)c(OC)c1 (stereo not drawn)
- RP-LC retention time: 940 s

SMILES: Cc1ccc(C)c(-n2c(-c3ccc(Cl)cc3)cn3c4c(=O)n(C)c(=O)n(C)c4nc23)c1
- RP-LC retention time: 1110 s

SMILES: COc1cccc(NC(=O)Cn2nc3cc(C)nc(Nc4ccc(C)c(C)c4)n3c2=O)c1
- RP-LC retention time: 1100 s

SMILES: Cc1ccc(-c2noc(-c3nn(-c4ccc(C)cc4)ccc3=O)n2)cc1
- RP-LC retention time: 1010 s

SMILES: COc1cc(-c2nc3ncccn3c2NC2CCC(C)CC2)ccc1OC(C)C (stereo not drawn)
- RP-LC retention time: 868 s

SMILES: O=C(Nc1ccc(C(F)(F)F)cc1)N1CCCC1c1nncn1C1CCCC1 (stereo not drawn)
- RP-LC retention time: 781 s

SMILES: CN(C)c1ccc(CNC(=O)C2CCCN(c3nccnc3Sc3ccccc3)C2)cc1 (stereo not drawn)
- RP-LC retention time: 744 s

SMILES: O=C(NCCc1csc(-c2ccccc2)n1)C1CCN(S(=O)(=O)c2ccccc2F)CC1
- RP-LC retention time: 893 s

SMILES: Cc1cc(-c2ccc(S(=O)(=O)N3CCC(C(=O)NCc4ccccc4)CC3)o2)n[nH]1
- RP-LC retention time: 764 s

SMILES: Cc1ccc(NC(=O)Cn2nc3c(Oc4ccccc4C)nccn3c2=O)cc1
- RP-LC retention time: 853 s

SMILES: CCc1[nH]nc(S(=O)(=O)N2CCN(c3ccccn3)CC2)c1C(=O)OC
- RP-LC retention time: 560 s

SMILES: CCCCN(CCCC)C(=O)CN1C[C@H](c2ccc3c(c2)OCO3)[C@@H](C(=O)O)[C@@H]1c1ccc(OC)cc1
- RP-LC retention time: 974 s

SMILES: Cc1cc(Cl)ccc1NC(=O)N1CCC(n2cnnc2C2CC2)C1 (stereo not drawn)
- RP-LC retention time: 661 s

SMILES: Cn1c(CCNC(=O)c2ccc(Cl)s2)nc2cccnc21
- RP-LC retention time: 626 s

SMILES: O=C(Nc1ccc2c(c1)OCCO2)N1CCN(c2nc3ccccc3n(Cc3ccccc3)c2=O)CC1
- RP-LC retention time: 1010 s

SMILES: CCCN(C)c1nccn2c(=O)n(CC(=O)Nc3ccc(C)c(Cl)c3)nc12
- RP-LC retention time: 765 s

SMILES: CCN(CC)S(=O)(=O)c1cccc(-c2cn3ccc(C)cc3n2)c1
- RP-LC retention time: 656 s

SMILES: CN(C)CCCNc1oc(-c2ccccc2)nc1S(=O)(=O)c1ccc(F)cc1
- RP-LC retention time: 692 s

SMILES: COc1ccc2c(=O)c(C(=O)c3ccncc3)cn(CC(=O)NC3CCCCC3)c2c1
- RP-LC retention time: 655 s

SMILES: CCN1C(=O)COc2ccc(-c3noc(/C=C/c4ccc(C)cc4)n3)cc21
- RP-LC retention time: 1230 s

SMILES: Fc1ccc(CN2CCN(c3cnn4c(C5CC5)nnc4c3)CC2)cc1
- RP-LC retention time: 498 s

SMILES: COCC1(O)CCOC2(CCN(Cc3cccc(F)c3F)CC2)C1 (stereo not drawn)
- RP-LC retention time: 589 s

SMILES: COc1ccc(OC)c(NS(=O)(=O)c2cc(-c3nc(C(C)(C)C)cs3)cs2)c1
- RP-LC retention time: 1250 s

SMILES: COc1cccc(-n2cc(C(=O)OCC(=O)OC(C)(C)C)c3ccccc3c2=O)c1
- RP-LC retention time: 1140 s

SMILES: O=C(NCc1cccc(F)c1)c1cn2cc(Cl)ccc2n1
- RP-LC retention time: 799 s

SMILES: Cn1nc(C(=O)N2CCCCC2)c2c1CCN(C(=O)CCC(=O)NC1CCCC1)C2
- RP-LC retention time: 666 s

SMILES: COC1CCC12CCN(Cc1ccccc1C#N)CC2 (stereo not drawn)
- RP-LC retention time: 603 s

SMILES: O=C(NCc1ccccc1)C1CCCN(C(=O)C2Sc3ccccc3NC2=O)C1 (stereo not drawn)
- RP-LC retention time: 746 s

SMILES: O=C(Cn1c(=O)c2cccn2c2ccccc21)Nc1cccc(C(F)(F)F)c1
- RP-LC retention time: 880 s

SMILES: COc1ccccc1C(=O)N1CCC2(C1)C(=O)N(C)c1ccccc12 (stereo not drawn)
- RP-LC retention time: 738 s

SMILES: CSc1ccc(CNC(=O)COc2cc(C)nc(N3CCCC3)n2)cc1
- RP-LC retention time: 648 s

SMILES: Cc1cccc(C)c1-n1ccn(Cc2nc(-c3ccc(F)cc3)no2)c(=O)c1=O
- RP-LC retention time: 884 s

SMILES: O=C(CC1CCN(C(=O)c2ccc3oc(C4CC4)nc3c2)CC1)N1CCOCC1
- RP-LC retention time: 619 s

SMILES: COCCN1C(=O)CCc2cc(NS(=O)(=O)c3ccccc3)ccc21
- RP-LC retention time: 716 s

SMILES: CC(C)NC(=O)c1cc2nc(N(C)C)n(-c3ccccc3)c2s1
- RP-LC retention time: 885 s

SMILES: Cc1ccc(C)c(N2CCN(C(=O)Cn3nc(C(=O)N4CCCCC4)c4ccccc43)CC2)c1
- RP-LC retention time: 1100 s

SMILES: Cc1ccc(NS(=O)(=O)c2cc(-c3[nH]ncc3C(=O)N(C)C)oc2C)c(Cl)c1
- RP-LC retention time: 707 s

SMILES: Cc1cc(C)c(S(=O)(=O)N2CCCC2c2nc(-c3ccccc3)no2)cc1C (stereo not drawn)
- RP-LC retention time: 1260 s

SMILES: O=C(NCc1csc(-c2ccccc2)n1)[C@H]1CCCN1C(=O)Nc1ccc(Br)cc1
- RP-LC retention time: 874 s

SMILES: Cc1ccc(-c2cn3c(CC(=O)N4CCN(c5ccc(Cl)cc5)CC4)csc3n2)cc1C
- RP-LC retention time: 997 s

SMILES: CCCc1noc(-c2cccnc2N2CCCN(Cc3ccccc3)CC2)n1
- RP-LC retention time: 690 s

SMILES: Cc1ccc(N(C(=O)Cc2ccccc2)C2C=CS(=O)(=O)C2)cc1Cl (stereo not drawn)
- RP-LC retention time: 869 s

SMILES: CCc1ccc(CNC(=O)c2cc3c(=O)n(C)ccc3n2C)cc1
- RP-LC retention time: 746 s

SMILES: O=C(Cc1cccs1)NC(Cc1ccccc1)c1nnc(N2CCCCC2)o1 (stereo not drawn)
- RP-LC retention time: 843 s

SMILES: CCOc1ccc(C(=O)NCc2noc(-c3ccc(OC)cc3)n2)cc1
- RP-LC retention time: 876 s

SMILES: CC(C)Cn1nc2ccc(S(=O)(=O)N3CCC(C)CC3)cn2c1=O
- RP-LC retention time: 862 s

SMILES: CCSCC[C@@H](NC(=O)CCc1c(C)c2ccc(O)c(C)c2oc1=O)C(=O)O
- RP-LC retention time: 680 s

SMILES: COCCNC(=O)Cn1ccc2c(SCc3ccc(C)cc3)nccc21
- RP-LC retention time: 658 s

SMILES: COc1ccc(-c2nnc(N3CCC(C(=O)NCCN4CCOCC4)CC3)o2)cc1
- RP-LC retention time: 889 s

SMILES: CC(C)NC(=O)NCC1Cn2cccc2C(=O)N1Cc1ccccc1 (stereo not drawn)
- RP-LC retention time: 696 s

SMILES: COc1ccc(NC(=O)N2CCC3(C2)C(=O)Nc2ccccc23)c(OC)c1 (stereo not drawn)
- RP-LC retention time: 678 s

SMILES: CC1CCN(S(=O)(=O)c2ccc(-c3nnc(C(=O)NCCCN4CCCC4=O)o3)cc2)CC1
- RP-LC retention time: 792 s

SMILES: CN1CCn2cc(S(=O)(=O)Nc3ccc(F)c(F)c3)cc2C1=O
- RP-LC retention time: 671 s

SMILES: CC(C)N1CCN(C(=O)C2=NN(c3ccc(Cl)cc3)c3ncccc3S2(=O)=O)CC1
- RP-LC retention time: 654 s

SMILES: Cc1nn(-c2ccc(-c3ccccc3)nn2)c(C)c1S(=O)(=O)N1CCCCC1
- RP-LC retention time: 1090 s

SMILES: CCOCCCNC(=O)C1CCN(c2nc3cccnc3s2)CC1
- RP-LC retention time: 654 s

SMILES: CC1CCNC2C1NC(=O)C1CCCNC1N2C1CC1 (stereo not drawn)
- RP-LC retention time: 679 s

SMILES: CN1CCCC1c1nc(C2CN(C(=O)c3ccsc3)C2)no1 (stereo not drawn)
- RP-LC retention time: 567 s

SMILES: COC(=O)c1cc(S(=O)(=O)N2CCCC2C(=O)Nc2cc(F)ccc2F)cn1C (stereo not drawn)
- RP-LC retention time: 911 s

SMILES: Cc1cccc(Cn2c(=O)n(CCNC(=O)C(C)C)c3ncccc32)c1
- RP-LC retention time: 769 s

SMILES: O=C(CN1C(=O)CN(C(=O)NCc2ccccc2)c2ccccc21)NC1CCCc2ccccc21 (stereo not drawn)
- RP-LC retention time: 892 s

SMILES: O=C(Cn1cccc1-c1nnc(C2CCC2)o1)NCc1ccccc1Cl
- RP-LC retention time: 907 s

SMILES: Cc1nnc(C(=O)Nc2cccc(C(=O)NCCc3c[nH]c4ccc(Cl)cc34)c2)s1
- RP-LC retention time: 847 s

SMILES: COc1cccc(CN2CCC3(CC2)c2[nH]c4ccccc4c2CCN3C)c1
- RP-LC retention time: 596 s

SMILES: CCCc1ccc(S(=O)(=O)N2C[C@@H](F)C[C@H]2C(=O)N2CCc3ccccc3C2)cc1
- RP-LC retention time: 1060 s

SMILES: CCOC(=O)c1sc(NC(=O)Cn2nc3c(cc2=O)CCCC3)nc1C
- RP-LC retention time: 764 s

SMILES: Cc1ccc(Nc2c(-c3ccccc3O)nc3ccc(Cl)cn23)cc1
- RP-LC retention time: 1080 s

SMILES: Cc1cc2[nH]c(C(=O)NC(C)c3cccnc3)c(CN3CCCCC3)c2s1 (stereo not drawn)
- RP-LC retention time: 587 s

SMILES: CCc1sc(NC(=O)c2sc(C)nc2C)nc1-c1ccc(Br)cc1
- RP-LC retention time: 1160 s

SMILES: Nc1nc(Cl)nc2c1ncn2[C@H]1C[C@H](O)[C@@H](CO)O1
- RP-LC retention time: 593 s

SMILES: CCOC(=O)c1cccc(NS(=O)(=O)c2c(C)nn(-c3ccc(-c4ccccc4)nn3)c2C)c1
- RP-LC retention time: 1070 s

SMILES: O=C(Nc1ccc2c(c1)OCCO2)C1CCN(C(=O)c2ccccc2F)CC1
- RP-LC retention time: 734 s

SMILES: O=C(NCCC1=CCCCC1)c1cccn1-c1cccnc1
- RP-LC retention time: 810 s

SMILES: COc1ccc(NC(=O)N2CCN(C3=CC4=NC(C)CN4C=N3)CC2)cc1Cl (stereo not drawn)
- RP-LC retention time: 633 s

SMILES: CCOc1ccc(NC(=O)N2C[C@@H](F)C[C@H]2C(=O)N2CCc3ccccc3C2)cc1
- RP-LC retention time: 776 s

SMILES: O=C(Cc1ccsc1)N1CCC([C@@H]2CNC[C@H]2CO)CC1
- RP-LC retention time: 568 s

SMILES: Cc1ccc(C(=O)Nc2nccnc2C(=O)NC2CCCC2)cc1
- RP-LC retention time: 1040 s

SMILES: COc1cc(Br)ccc1NC(=O)C1CCCN(c2nc3ccccc3nc2OC)C1 (stereo not drawn)
- RP-LC retention time: 1330 s
